The record followed here is ChEMBL document CHEMBL5653631, “A Potent and Selective ULK1 Inhibitor Suppresses Autophagy and Sensitizes Cancer Cells to Nutrient Stress” (iScience, 2018).

Assay [1] addresses T1, Protein kinase C epsilon type (Homo sapiens) (UniProt Q02156).
T1 sequence (whole entry): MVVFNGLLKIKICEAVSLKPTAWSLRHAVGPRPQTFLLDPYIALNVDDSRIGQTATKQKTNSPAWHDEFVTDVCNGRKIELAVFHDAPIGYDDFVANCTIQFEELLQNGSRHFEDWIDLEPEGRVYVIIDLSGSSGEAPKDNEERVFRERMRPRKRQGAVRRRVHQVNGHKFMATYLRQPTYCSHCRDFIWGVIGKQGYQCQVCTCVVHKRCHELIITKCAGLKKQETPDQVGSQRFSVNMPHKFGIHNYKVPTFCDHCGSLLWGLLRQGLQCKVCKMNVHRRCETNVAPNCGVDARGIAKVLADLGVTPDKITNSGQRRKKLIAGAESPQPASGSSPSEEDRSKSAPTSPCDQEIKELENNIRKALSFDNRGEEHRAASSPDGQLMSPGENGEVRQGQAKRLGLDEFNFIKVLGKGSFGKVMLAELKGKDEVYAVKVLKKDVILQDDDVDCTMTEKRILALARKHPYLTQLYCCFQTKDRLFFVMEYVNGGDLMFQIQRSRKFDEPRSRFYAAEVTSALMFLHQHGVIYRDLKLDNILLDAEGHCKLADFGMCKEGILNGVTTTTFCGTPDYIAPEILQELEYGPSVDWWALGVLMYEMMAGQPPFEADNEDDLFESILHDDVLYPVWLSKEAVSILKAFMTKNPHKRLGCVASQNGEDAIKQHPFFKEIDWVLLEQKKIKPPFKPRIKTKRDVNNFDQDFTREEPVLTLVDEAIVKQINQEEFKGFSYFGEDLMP
As to the kind of experiment: Inhibition of human recombinant PKCe at 15 nM in presence of ATP by radiometric assay relative to control.

Assay [2] deals with Serine/threonine-protein kinase WNK2 (Homo sapiens) (UniProt Q9Y3S1). The assay can be described thus: Inhibition of human recombinant Wnk2 at 15 nM related to control ULK1.
In assay [3] the target is Ribosomal protein S6 kinase alpha-5 (Homo sapiens) (UniProt O75582). The assay can be described thus: Inhibition of human recombinant MSK1 at 40 nM in presence of ATP by radiometric assay relative to control.
The target of assay [4] is Protein-tyrosine kinase 2-beta (Homo sapiens) (UniProt Q14289). As to the kind of experiment: Inhibition of human recombinant PYK2 at 40 nM in presence of ATP by radiometric assay relative to control.
Assay [5] concerns the target Serine/threonine-protein kinase SIK3 (Homo sapiens) (UniProt Q9Y2K2). The assay can be described thus: Inhibition of human recombinant QSK at 40 nM in presence of ATP by radiometric assay relative to control.
The target of assay [6] is Serine/threonine-protein kinase 32C (Homo sapiens) (UniProt Q86UX6). The assay can be described thus: Inhibition of human recombinant YANK3 at 40 nM in presence of ATP by radiometric assay relative to control.
Assay [7] deals with T2, Tyrosine-protein kinase Mer (Homo sapiens) (UniProt Q12866).
T2 sequence (whole entry): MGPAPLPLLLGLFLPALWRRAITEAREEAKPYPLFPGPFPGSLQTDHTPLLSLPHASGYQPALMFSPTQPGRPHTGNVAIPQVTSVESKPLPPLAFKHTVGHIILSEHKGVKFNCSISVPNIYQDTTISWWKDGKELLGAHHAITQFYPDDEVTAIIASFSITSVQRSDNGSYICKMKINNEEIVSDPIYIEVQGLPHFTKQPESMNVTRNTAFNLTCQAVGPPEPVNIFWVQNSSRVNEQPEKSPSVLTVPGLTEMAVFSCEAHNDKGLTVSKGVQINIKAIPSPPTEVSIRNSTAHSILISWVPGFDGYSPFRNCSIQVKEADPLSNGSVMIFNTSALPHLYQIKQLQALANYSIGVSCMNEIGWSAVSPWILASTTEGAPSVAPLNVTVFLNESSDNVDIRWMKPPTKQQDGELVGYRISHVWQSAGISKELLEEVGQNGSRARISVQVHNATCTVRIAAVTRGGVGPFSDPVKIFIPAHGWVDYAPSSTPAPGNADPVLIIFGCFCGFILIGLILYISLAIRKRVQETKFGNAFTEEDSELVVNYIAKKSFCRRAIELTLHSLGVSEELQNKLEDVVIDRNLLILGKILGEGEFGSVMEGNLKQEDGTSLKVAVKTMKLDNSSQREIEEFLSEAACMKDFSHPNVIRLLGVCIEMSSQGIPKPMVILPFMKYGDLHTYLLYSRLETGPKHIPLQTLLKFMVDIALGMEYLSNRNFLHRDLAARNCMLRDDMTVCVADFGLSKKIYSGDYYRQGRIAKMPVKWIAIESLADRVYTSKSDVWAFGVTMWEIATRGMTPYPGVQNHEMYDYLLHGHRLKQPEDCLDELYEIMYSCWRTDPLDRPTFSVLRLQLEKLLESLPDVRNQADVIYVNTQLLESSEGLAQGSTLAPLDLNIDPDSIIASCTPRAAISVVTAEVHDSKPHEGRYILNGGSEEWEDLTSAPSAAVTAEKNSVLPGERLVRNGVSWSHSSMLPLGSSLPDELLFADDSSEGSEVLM
The assay can be described thus: Inhibition of human recombinant MER at 40 nM related to control ULK1.

Assay [8] addresses Death-associated protein kinase 1 (Homo sapiens) (UniProt P53355). As to the kind of experiment: Inhibition of human recombinant DAPK1 at 500 nM in presence of ATP by radiometric assay relative to control.
The target of assay [9] is T3, Inhibitor of nuclear factor kappa-B kinase subunit beta (Homo sapiens) (UniProt O14920).
T3 sequence (whole entry): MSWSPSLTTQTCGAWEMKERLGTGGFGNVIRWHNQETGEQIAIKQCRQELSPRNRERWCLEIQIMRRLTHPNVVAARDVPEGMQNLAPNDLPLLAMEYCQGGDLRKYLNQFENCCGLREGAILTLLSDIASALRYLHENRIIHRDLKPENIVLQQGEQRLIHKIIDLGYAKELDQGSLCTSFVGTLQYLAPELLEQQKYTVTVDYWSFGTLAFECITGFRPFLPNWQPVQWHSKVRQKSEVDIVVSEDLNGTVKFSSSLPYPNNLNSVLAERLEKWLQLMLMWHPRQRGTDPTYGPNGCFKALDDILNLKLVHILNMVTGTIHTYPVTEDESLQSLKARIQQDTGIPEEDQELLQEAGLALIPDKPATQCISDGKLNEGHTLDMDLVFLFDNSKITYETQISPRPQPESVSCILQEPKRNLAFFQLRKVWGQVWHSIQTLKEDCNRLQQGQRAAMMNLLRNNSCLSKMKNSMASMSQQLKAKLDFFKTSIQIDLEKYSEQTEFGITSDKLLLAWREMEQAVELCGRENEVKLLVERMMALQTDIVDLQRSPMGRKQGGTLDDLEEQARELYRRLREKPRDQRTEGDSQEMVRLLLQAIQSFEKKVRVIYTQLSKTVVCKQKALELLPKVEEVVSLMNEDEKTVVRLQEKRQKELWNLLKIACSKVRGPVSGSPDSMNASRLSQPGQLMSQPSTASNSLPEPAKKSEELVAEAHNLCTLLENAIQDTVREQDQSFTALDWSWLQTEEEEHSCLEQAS
As to the kind of experiment: Inhibition of human recombinant IKKb at 500 nM in presence of ATP by radiometric assay relative to control.

Sequence of Serine/threonine-protein kinase WNK2 (Homo sapiens) (Q9Y3S1 whole entry): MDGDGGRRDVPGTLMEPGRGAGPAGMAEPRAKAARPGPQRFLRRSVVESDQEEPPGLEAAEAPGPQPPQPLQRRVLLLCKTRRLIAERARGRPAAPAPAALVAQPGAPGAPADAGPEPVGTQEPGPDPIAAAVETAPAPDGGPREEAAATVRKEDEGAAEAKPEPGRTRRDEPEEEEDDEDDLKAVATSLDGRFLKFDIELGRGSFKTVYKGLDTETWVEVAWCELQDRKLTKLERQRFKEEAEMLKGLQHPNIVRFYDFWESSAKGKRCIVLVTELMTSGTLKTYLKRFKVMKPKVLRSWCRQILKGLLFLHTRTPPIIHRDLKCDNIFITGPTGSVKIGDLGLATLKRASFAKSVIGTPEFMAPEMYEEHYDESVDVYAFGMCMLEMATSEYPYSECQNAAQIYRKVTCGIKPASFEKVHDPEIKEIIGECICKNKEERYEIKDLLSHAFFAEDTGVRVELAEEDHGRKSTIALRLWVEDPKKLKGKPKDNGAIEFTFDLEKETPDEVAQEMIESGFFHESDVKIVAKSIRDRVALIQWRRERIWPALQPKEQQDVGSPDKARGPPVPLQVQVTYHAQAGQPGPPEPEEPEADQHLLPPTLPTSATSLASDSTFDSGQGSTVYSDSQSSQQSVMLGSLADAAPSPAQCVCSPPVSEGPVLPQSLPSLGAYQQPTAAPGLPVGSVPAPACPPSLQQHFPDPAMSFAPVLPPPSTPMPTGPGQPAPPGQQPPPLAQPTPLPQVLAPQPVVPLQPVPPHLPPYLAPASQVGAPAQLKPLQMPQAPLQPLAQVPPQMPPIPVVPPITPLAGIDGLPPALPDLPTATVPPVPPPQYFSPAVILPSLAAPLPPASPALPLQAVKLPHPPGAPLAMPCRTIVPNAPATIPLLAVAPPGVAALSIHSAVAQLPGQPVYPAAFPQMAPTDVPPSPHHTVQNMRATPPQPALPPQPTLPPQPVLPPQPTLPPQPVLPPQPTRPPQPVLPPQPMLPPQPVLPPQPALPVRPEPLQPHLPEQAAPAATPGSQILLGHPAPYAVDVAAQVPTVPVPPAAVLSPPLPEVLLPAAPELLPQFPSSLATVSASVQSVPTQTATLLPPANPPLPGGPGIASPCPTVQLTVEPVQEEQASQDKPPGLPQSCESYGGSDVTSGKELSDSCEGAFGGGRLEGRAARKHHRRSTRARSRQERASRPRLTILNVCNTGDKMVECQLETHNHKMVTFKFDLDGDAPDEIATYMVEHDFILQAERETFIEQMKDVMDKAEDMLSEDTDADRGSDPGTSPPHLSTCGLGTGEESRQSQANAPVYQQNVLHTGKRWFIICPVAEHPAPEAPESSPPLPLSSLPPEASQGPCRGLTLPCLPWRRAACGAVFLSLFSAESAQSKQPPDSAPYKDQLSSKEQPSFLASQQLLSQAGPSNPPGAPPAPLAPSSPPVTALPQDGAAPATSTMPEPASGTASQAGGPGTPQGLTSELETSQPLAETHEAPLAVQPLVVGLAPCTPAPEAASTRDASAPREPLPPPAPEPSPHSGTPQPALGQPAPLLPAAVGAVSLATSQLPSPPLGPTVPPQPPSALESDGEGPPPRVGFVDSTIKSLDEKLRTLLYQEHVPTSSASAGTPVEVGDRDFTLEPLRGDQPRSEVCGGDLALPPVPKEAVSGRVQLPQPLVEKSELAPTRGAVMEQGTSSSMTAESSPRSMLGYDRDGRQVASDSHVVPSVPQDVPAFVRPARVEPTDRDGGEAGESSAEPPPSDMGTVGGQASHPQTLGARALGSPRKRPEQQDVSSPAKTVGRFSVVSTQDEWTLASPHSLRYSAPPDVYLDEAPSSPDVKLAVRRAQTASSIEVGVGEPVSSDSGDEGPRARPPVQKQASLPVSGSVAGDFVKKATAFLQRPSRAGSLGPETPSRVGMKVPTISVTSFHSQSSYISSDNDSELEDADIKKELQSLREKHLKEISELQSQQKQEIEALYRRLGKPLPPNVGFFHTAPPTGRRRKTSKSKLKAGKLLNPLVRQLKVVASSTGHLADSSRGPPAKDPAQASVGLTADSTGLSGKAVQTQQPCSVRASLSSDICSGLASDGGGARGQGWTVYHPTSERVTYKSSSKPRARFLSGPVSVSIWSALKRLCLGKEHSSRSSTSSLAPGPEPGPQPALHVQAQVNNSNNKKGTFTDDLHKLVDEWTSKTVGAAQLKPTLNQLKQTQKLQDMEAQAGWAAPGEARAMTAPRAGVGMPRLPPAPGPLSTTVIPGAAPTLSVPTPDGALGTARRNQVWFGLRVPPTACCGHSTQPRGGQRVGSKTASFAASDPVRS
Sequence of Serine/threonine-protein kinase 32C (Homo sapiens) (Q86UX6 whole entry): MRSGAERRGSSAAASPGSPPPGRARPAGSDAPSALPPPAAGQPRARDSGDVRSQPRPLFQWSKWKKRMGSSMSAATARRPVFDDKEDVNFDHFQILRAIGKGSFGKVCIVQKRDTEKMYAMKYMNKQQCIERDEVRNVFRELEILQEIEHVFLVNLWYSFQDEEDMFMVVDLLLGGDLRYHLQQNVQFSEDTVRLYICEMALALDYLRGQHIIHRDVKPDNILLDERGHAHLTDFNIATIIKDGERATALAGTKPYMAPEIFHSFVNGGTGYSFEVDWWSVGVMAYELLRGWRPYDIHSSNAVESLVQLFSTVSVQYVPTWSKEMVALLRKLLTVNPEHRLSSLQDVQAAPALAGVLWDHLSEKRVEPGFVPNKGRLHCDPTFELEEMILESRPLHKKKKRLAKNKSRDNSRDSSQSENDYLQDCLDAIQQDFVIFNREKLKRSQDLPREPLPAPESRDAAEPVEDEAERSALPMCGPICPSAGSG
Sequence of Death-associated protein kinase 1 (Homo sapiens) (P53355 whole entry, looked up): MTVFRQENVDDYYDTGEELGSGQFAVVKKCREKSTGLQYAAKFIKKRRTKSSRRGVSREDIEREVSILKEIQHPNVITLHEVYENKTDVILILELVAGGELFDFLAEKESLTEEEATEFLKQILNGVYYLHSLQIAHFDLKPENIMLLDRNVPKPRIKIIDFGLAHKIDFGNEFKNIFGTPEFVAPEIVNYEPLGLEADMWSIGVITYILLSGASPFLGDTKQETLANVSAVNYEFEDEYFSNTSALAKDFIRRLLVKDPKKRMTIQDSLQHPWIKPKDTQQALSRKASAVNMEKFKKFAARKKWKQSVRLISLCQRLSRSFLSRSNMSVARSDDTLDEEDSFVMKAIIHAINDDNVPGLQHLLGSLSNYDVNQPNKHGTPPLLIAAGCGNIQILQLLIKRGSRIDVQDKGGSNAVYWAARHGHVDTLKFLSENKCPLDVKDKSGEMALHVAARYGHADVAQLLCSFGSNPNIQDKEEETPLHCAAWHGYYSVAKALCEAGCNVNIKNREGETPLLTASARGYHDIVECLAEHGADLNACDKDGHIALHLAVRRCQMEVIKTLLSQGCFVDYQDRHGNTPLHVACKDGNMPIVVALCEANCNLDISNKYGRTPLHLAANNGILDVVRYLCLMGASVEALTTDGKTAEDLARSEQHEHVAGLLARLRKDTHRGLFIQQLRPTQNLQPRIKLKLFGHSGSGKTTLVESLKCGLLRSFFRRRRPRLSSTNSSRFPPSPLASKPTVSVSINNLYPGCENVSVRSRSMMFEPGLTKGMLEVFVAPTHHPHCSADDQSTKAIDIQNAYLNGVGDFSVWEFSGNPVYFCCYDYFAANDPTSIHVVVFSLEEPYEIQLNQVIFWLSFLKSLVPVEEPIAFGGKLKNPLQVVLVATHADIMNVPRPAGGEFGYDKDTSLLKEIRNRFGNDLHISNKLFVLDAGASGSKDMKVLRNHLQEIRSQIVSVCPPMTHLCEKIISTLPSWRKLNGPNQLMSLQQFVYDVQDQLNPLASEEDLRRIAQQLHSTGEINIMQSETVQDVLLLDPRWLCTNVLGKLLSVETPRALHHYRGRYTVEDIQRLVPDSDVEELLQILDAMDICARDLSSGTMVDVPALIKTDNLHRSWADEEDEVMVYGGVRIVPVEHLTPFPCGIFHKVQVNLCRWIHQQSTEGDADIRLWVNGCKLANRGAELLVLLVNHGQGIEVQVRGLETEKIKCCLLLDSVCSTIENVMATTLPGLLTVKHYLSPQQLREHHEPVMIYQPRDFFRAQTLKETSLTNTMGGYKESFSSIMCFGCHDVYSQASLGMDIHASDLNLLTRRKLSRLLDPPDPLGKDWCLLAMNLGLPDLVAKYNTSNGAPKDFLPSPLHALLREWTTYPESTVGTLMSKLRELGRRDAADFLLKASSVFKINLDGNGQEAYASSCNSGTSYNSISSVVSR
Sequence of Ribosomal protein S6 kinase alpha-5 (Homo sapiens) (O75582 whole entry, looked up): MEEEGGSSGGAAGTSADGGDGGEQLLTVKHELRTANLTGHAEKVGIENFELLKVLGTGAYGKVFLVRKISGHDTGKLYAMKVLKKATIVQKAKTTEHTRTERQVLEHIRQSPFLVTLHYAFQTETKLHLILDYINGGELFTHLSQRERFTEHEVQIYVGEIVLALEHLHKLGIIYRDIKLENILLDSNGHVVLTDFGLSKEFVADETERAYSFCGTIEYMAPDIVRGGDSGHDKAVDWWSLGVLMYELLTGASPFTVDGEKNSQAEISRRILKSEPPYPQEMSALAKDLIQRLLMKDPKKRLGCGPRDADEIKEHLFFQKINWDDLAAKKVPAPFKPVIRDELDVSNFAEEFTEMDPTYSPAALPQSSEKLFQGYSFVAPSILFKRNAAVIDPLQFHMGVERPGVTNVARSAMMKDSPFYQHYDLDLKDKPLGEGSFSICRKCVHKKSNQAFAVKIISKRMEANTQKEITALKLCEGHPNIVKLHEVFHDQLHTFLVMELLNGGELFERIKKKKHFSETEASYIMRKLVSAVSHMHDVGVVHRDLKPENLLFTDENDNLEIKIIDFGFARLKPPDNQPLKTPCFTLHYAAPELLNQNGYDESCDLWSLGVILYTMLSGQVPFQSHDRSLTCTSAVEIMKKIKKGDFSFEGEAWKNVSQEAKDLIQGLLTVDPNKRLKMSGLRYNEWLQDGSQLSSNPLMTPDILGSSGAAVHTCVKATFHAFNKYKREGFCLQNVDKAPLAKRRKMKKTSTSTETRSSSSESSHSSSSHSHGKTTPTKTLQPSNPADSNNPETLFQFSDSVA

One may read the inhibition as the relative decrease from the control value, in per cent. As to `CC(C)[C@H](NC(=O)c1cc(-c2cnn3cc(-c4ccc(OCCN5CCCCC5)cc4)cnc23)cs1)C(F)(F)F`, the inhibition in assay [1] was determined as 0%. Further, the fold change (FC) in [2] is 0.02.

Regarding `O=C(N[C@@H](C1CC1)C(F)(F)F)c1cc(-c2cnn3cc(-c4ccc(F)cc4)cnc23)cs1`, the inhibition in assay [3] was determined as 0%; in assay [4] it was 3%; in assay [5] it was 59%; in assay [6], 5%. The fold change (FC) in assay [7] is 0.01.

Consider `CNC(=O)c1ccccc1Oc1nc(Nc2cc(OC)c(OC)c(OC)c2)ncc1Br`, for which the inhibition in [8] came out at 0%; in [9], 2%.
